Laboratory results as given in US20130244879A1, “USE OF LIPO-CHITOOLIGOSACCHARIDES TO INITIATE EARLY FLOWERING AND FRUIT DEVELOPMENT IN PLANTS AND RELATED METHODS AND COMPOSITIONS” (NOVOZYMES BIOLOGICALS HOLDING A/S, priority 2003, published 2013).

What was measured:
Assay type in all cases: in vivo
Cobra tomatoes = experiment: Trial 2: LCO dose and timing on greenhouse tomato (Cobra)
Experimental: The Cobra variety was used to re-examine optimal doses of LCO. The concentrations tested were 50 ng and 75 ng LCO per plant, applied once (2 weeks after transplanting) and twice (4 weeks after transplanting). The sample number was increased to 20 plants.

sweet corn = experiment: Experiment 8: foliar application of LCO on sweet corn
Source text: Fertilizer (36-12-18) was applied to the corn field at 500 kg/ha before seeding. A machine planter was employed to sow sweet corn grain. Plot size was 4×4.5=18 M^2, and 6 rows/plot. To protect corn ears from raccoons and other animal damage, sweet corn plants were protected with an electric fence around the plots after silking. LCO was applied once 40 days after sowing or/and twice, 40 days after sowing and 58 days after sowing at a rate of 200 L/ha for the first application and 300 L/ha for the second application. Corn was harvested 80 days after sowing, from the two middle rows and corn ears reaching 12 cm or longer were counted as marketable.

Tomato = experiment: Experiment 16: LCO application on fruit number and weight at end of season; details: LCO applied once at 50 ng, 20-40 days after transplantation
Source text: Tomato seedlings (6 leaf-stage) were transplanted. The plants were watered on the day they were transplanted and whenever the soil was very dry during the season. Fertilizer (20-20-20) was applied at 250 kg/ha to the tomato field before transplantation. All tomato plants were supported with sticks when they were heavily loaded with fruit. Fruit yield was finally cumulated at the end of the season 115 days after transplant.

pepper (cv. Camelot) = experiment: Experiment 7: foliar application of LCO on pepper
Experimental: 13 pepper seedlings (cv. Camelot, 6-leaf stage) were transplanted in 2 rows per plot (3.5×2.5M^2). The rows were covered with 65 cm width black plastic mulch one week before transplanting. Fertilizer (10-52-10) solution of 250 ppm was applied into the planting hole through the mulch when transplanting (approx. 250 ml per plant). The drip irrigation system was set to twice a week and 4 hours each time, depending on the soil moisture. Plants were sprayed with LCO 14 days after transplanting (5 ml/plant) and 27 days after transplanting (50 ml/plant).

soybean (cv. Nortman) = experiment: Experiment 18: LCO foliar application on legume (soybean)
Experimental: A short heat-unit variety of soybean (cv. Nortman, HU 2425) was planted at density of plants on the field of approx. 300 plants per plot (500,000 plants/ha). The soybean plants were first treated with LCO at their blooming stage 24 days after planting. The treatment amounts of LCO (detailed above) were diluted with distilled water to give a 2-litre solution sprayed over 4 plots of the treatment. The second application was sprayed at the podding stage 49 days after planting. As before, the LCO was diluted with distilled water to 2-litre solution per 4 plots of the treatment. The plants receiving a single application were sprayed with LCO for the first time, whereas the plants receiving a double application were sprayed for the second time. A CO2 pressure sprayer was employed for this trial. The amount of fluid dispensed by the sprayer was controlled by the nozzle size. It was calibrated with water prior to spraying with LCO. Biomass was examined 58 days after planting by digging out by hand 5 plants per plot. The final yield was obtained by harvesting by combine the intact area (2-meter long to the end) 101 days after planting. The data were analyzed with the SAS program.

## Lipo-chitooligosaccharides [LCO]
Cobra tomatoes; 50 ng treatment
  advance in flowering (attaining same flower number as control): ~3 days
Cobra tomatoes; 50 ng/plant application twice
  advance of equivalent fruit numbers over control: 2 weeks
Cobra tomatoes; LCO 50 ng once, April 4
  Flower Number/Plant: 32.45
  Fruit Number/Plant: 1.3 b
Cobra tomatoes; LCO 50 ng once, Feb. 28
  Flower Number/Plant: 0.0 b
Cobra tomatoes; LCO 50 ng once, Mar. 7
  Flower Number/Plant: 2.5 ab
Cobra tomatoes; LCO 50 ng once, Mar. 14
  Flower Number/Plant: 7.4 ab
  Fruit Number/Plant: 0.05 b
Cobra tomatoes; LCO 50 ng once, Mar. 21
  Flower Number/Plant: 14.55
  Fruit Number/Plant: 0.25
Cobra tomatoes; LCO 50 ng once, Mar. 28
  Flower Number/Plant: 23.95
  Fruit Number/Plant: 0.525 c
Cobra tomatoes; LCO 50 ng twice, April 4
  Flower Number/Plant: 32.2
  Fruit Number/Plant: 2.5 a
Cobra tomatoes; LCO 50 ng twice, Feb. 28
  Flower Number/Plant: 0.2 a
Cobra tomatoes; LCO 50 ng twice, Mar. 7
  Flower Number/Plant: 3.2 a
Cobra tomatoes; LCO 50 ng twice, Mar. 14
  Flower Number/Plant: 8.4 a
  Fruit Number/Plant: 0.75 a
Cobra tomatoes; LCO 50 ng twice, Mar. 21
  Flower Number/Plant: 16.0
  Fruit Number/Plant: 1.8 a
Cobra tomatoes; LCO 50 ng twice, Mar. 28
  Flower Number/Plant: 25.15
  Fruit Number/Plant: 2.025 a
Cobra tomatoes; LCO 75 ng once, April 4
  Flower Number/Plant: 28.0
  Fruit Number/Plant: 1.45 b
Cobra tomatoes; LCO 75 ng once, Feb. 28
  Flower Number/Plant: 0.0 b
Cobra tomatoes; LCO 75 ng once, Mar. 7
  Flower Number/Plant: 2.85 ab
Cobra tomatoes; LCO 75 ng once, Mar. 14
  Flower Number/Plant: 7.35 ab
  Fruit Number/Plant: 0.45 ab
Cobra tomatoes; LCO 75 ng once, Mar. 21
  Flower Number/Plant: 14.2
  Fruit Number/Plant: 0.9 bc
Cobra tomatoes; LCO 75 ng once, Mar. 28
  Flower Number/Plant: 21.4
  Fruit Number/Plant: 1.15 bc
Cobra tomatoes; LCO 75 ng twice, April 4
  Flower Number/Plant: 31.0
  Fruit Number/Plant: 1.9 ab
Cobra tomatoes; LCO 75 ng twice, Feb. 28
  Flower Number/Plant: 0.0 b
Cobra tomatoes; LCO 75 ng twice, Mar. 7
  Flower Number/Plant: 3.25 a
Cobra tomatoes; LCO 75 ng twice, Mar. 14
  Flower Number/Plant: 7.35 ab
  Fruit Number/Plant: 0.6 ab
Cobra tomatoes; LCO 75 ng twice, Mar. 21
  Flower Number/Plant: 15.4
  Fruit Number/Plant: 1.0 b
Cobra tomatoes; LCO 75 ng twice, Mar. 28
  Flower Number/Plant: 23.35
  Fruit Number/Plant: 1.325 ab
Sweet corn; 10^−7M once
  Average Length (cm)/ear: 13.12 c cm
  Ear No/plant: 0.934
  Ear Weight (kg)/ha: 4383.3 kg/ha
  Ear/ha: 65416.7 ab /ha
  Marketable ears/ha: 25000.0 /ha
Sweet corn; 10^−7M twice
  Average Length (cm)/ear: 13.81 ab cm
  Ear No/plant: 0.935
  Ear Weight (kg)/ha: 5000.0 kg/ha
  Ear/ha: 70833.3 a /ha
  Marketable ears/ha: 30416.7 /ha
Sweet corn; 10^−8M once
  Average Length (cm)/ear: 13.24 bc cm
  Ear No/plant: 0.905
  Ear Weight (kg)/ha: 4800.0 kg/ha
  Ear/ha: 67083.3 ab /ha
  Marketable ears/ha: 26250.0 /ha
Sweet corn; 10^−8M twice
  Average Length (cm)/ear: 13.64 abc cm
  Ear No/plant: 0.856
  Ear Weight (kg)/ha: 5150.0 kg/ha
  Ear/ha: 62083.3 ab /ha
  Marketable ears/ha: 30000.0 /ha
Sweet corn; 10^−9M once
  Average Length (cm)/ear: 13.68 abc cm
  Ear No/plant: 0.928
  Ear Weight (kg)/ha: 4266.7 kg/ha
  Ear/ha: 68333.3 a /ha
  Marketable ears/ha: 29166.7 /ha
Sweet corn; 10^−9M twice
  Average Length (cm)/ear: 13.43 bc cm
  Ear No/plant: 0.886
  Ear Weight (kg)/ha: 4033.3 kg/ha
  Ear/ha: 56666.7 bc /ha
  Marketable ears/ha: 25000.0 /ha
Sweet corn; foliar application in the range of 10^−8-10^−7M
  total number of sweet corn ears: significantly increased
Tomato
  increased fruit number: up to 33%
Pepper (cv. Camelot); 14 ng/plant
  First 4 wk yield, Fruit/plant: 5.79ab Fruit/plant
  First 4 wk yield, gram/plant: 784.91ab gram/plant
Pepper (cv. Camelot); 50 ng/plant
  First 4 wk yield, Fruit/plant: 5.83ab Fruit/plant
  First 4 wk yield, gram/plant: 833.79ab gram/plant
Pepper (cv. Camelot); 75 ng/plant
  First 4 wk yield, Fruit/plant: 5.77ab Fruit/plant
  First 4 wk yield, gram/plant: 835.26ab gram/plant
Pepper (cv. Camelot); 100 ng/plant
  First 4 wk yield, Fruit/plant: 4.87b Fruit/plant
  First 4 wk yield, gram/plant: 694.48b gram/plant
Pepper (cv. Camelot); 141 ng/plant
  First 4 wk yield, Fruit/plant: 6.48a Fruit/plant
  First 4 wk yield, gram/plant: 934.83a gram/plant
Pepper (cv. Camelot); 282 ng/plant
  First 4 wk yield, Fruit/plant: 5.02ab Fruit/plant
  First 4 wk yield, gram/plant: 702.87b gram/plant
Pepper (cv. Camelot); 5 ml of 2×10^−8M
  best dose: 141 ng/plant
Pepper (cv. Camelot); foliar application
  increase of fruit number in the early stages: approximately 1 fruit per plant
Soybean (cv. Nortman); LCO 1 ng, applied once
  Biomass (g/5-plant): 49.46 AB g/5-plant
  Yield (kg/ha): 2563.96 AB kg/ha
Soybean (cv. Nortman); LCO 1 ng, applied twice
  Biomass (g/5-plant): 55.10 AB g/5-plant
  Yield (kg/ha): 2673.54 AB kg/ha
Soybean (cv. Nortman); LCO 10 ng, applied once
  Biomass (g/5-plant): 46.28 AB g/5-plant
  Yield (kg/ha): 2515.33 B kg/ha
Soybean (cv. Nortman); LCO 10 ng, applied twice
  Biomass (g/5-plant): 60.11 A g/5-plant
  Yield (kg/ha): 2385.75 B kg/ha
Soybean (cv. Nortman); LCO 100 ng, applied once
  Biomass (g/5-plant): 46.87 AB g/5-plant
  Yield (kg/ha): 2635.00 AB kg/ha
Soybean (cv. Nortman); LCO 100 ng, applied twice
  Biomass (g/5-plant): 55.09 AB g/5-plant
  Yield (kg/ha): 2974.17 A kg/ha
Soybean (cv. Nortman); LCO 1000 ng, applied once
  Biomass (g/5-plant): 47.99 AB g/5-plant
  Yield (kg/ha): 2452.71 B kg/ha
Soybean (cv. Nortman); LCO 1000 ng, applied twice
  Biomass (g/5-plant): 47.81 AB g/5-plant
  Yield (kg/ha): 2620.42 AB kg/ha
